Here are results for nine compounds from ChEMBL document CHEMBL5620346, “Current scenario of pyrazole hybrids with in vivo therapeutic potential against cancers” (Eur J Med Chem, 2023).

One series concerns MCF-10A. Kind of series: Cytotoxicity against human MCF-10A cells assessed as reduction in cell viability measured after 72 hrs by SRB assay. The format is functional, cell-based.
For series [1], the system named is MCF7. Kind of series: Cytotoxicity against human MCF7 cells assessed as reduction in cell viability measured after 72 hrs by SRB assay. The format is functional, cell-based. The following applies: MCF7, 72 h.
In series [2] the test system is HeLa. Kind of series: Cytotoxicity against human HeLa cells assessed as reduction in cell viability incubated for 72 hrs by MTT assay. The format is functional, cell-based. (In general: Formazan colour is commonly taken as a measure of viable cells.)
Series [3] has as its system HepG2. Kind of series: Cytotoxicity against human HepG2 cells assessed as reduction in cell viability incubated for 72 hrs by MTT assay. The class given is functional, cell-based. Particulars: HepG2, 72 h.
For series [4], the system named is MCF7. Put plainly: Cytotoxicity against human MCF7 cells assessed as reduction in cell viability incubated for 72 hrs by MTT assay. The format is functional, cell-based. The following applies: MCF7, 72 h.
For series [5], the system named is HCT-116. Kind of series: Antitumor activity against human HCT-116 cells xenografted in BALB/c nude mouse assessed as tumor growth inhibition at 25 mg/kg, po administered once a daily for 13 consecutive days relative to control. The class given is functional. The following applies: read-out: TGI.
The subject of series [6] is T47D. Kind of series: Antitumor activity against human T47D cells xenografted in nude BALB/c mouse assessed as tumor growth inhibition at 40 mg/kg administered via oral gavage for 20 days relative to control. The class given is functional. Particulars: 480 h, time 20 day, read-out: TGI. Background: A xenograft is tissue or cells of one species grown in another, often human tumour cells in immunodeficient mice.

Series [7] concerns T47D. Kind of series: Antitumor activity against human T47D cells xenografted in nude BALB/c mouse assessed as tumor growth inhibition at 20 mg/kg administered via oral gavage for 20 days relative to control. The format is functional. The following applies: 480 h, time 20 day, read-out: TGI.
Series [8] can be described thus: Oral bioavailability in mouse at 1 mg/kg. The class given is ADME, organism-based. The following applies: in vivo.
Series [9] relates to HT-29. Put plainly: Antitumor activity against human HT-29 cells xenografted in po dosed nude mouse assessed as reduction in tumor growth at 20 mg/kg relative to control. The class given is functional. The following applies: read-out: TGI.
Series [10] concerns HT-29. Kind of series: Antiproliferative activity against human HT-29 cells assessed as reduction in cell viability incubated for 72 hrs by MTT assay. The format is functional, cell-based. Particulars: HT-29, 72 h.
Series [11] in a line: Tmax in mouse at 1 mg/kg, sc. The format is ADME, organism-based. Particulars: in vivo.
The test system of the next series is HGC-27. Put plainly: Antiproliferative activity against human HGC-27 cells assessed as reduction in cell viability incubated for 72 hrs by MTT assay. The class given is functional, cell-based. Particulars: HGC-27, 72 h.
The subject of series [12] is HCT-116. Kind of series: Antiproliferative activity against human HCT-116 cells assessed as reduction in cell viability incubated for 72 hrs by MTT assay. The class given is functional, cell-based. The following applies: HCT-116, 72 h.
For series [13], the system named is HeLa. Kind of series: Antiproliferative activity against human HeLa cells assessed as reduction in cell viability incubated for 72 hrs by MTT assay. The class given is functional, cell-based.
The nature of series [14]: Cmax in mouse at 1 mg/kg, sc. The format is ADME, organism-based. Particulars: in vivo.
Series [15] addresses Receptor-type tyrosine-protein kinase FLT3 (Homo sapiens, UniProt P36888, D835H). Put plainly: Inhibition of FLT3 D835H mutant (unknown origin).
The target in series [16] is Cyclin-dependent kinase 4 (Homo sapiens, UniProt P11802). Kind of series: Inhibition of CDK4 (unknown origin).
Another series relates to MV4-11. Kind of series: Antitumor activity against human MV4-11 cells xenografted in mouse assessed as tumor growth inhibition at 200 mg/kg, po relative to control. The format is functional. The following applies: read-out: TGI.
The next series has as its system KCL-22. Kind of series: Antitumor activity against human KCL-22 cells xenografted in mouse assessed as reduction in tumor growth at 3 mg/kg, po relative to control. Particulars: KCL-22, po, read-out: TGI.
A short description of series [17]: Tmax in mouse at 40 mg/kg, po. The format is ADME, organism-based. Particulars: in vivo.
Series [18] in a line: Half life in mouse at 40 mg/kg, po. The format is ADME, organism-based. Particulars: in vivo.
The nature of series [19]: Oral bioavailability in dog. The following applies: in vivo.
Series [20] in a line: Oral bioavailability in rat. Particulars: in vivo.
A short description of series [21]: Antiproliferative activity against HUVEC cells assessed as cell growth inhibition measured after 72 hrs by crystal violet staining based analysis. The class given is toxicity. The following applies: human.
The nature of series [22]: Cytotoxicity against human NCM460 cells assessed as reduction in cell viability incubated for 48 hrs by MTT assay. The class given is toxicity, cell-based.
Another series relates to MDA-MB-231. Put plainly: Antiproliferative activity against human MDA-MB-231 cells assessed as reduction in cell growth incubated for 72 hrs by SRB assay. The format is functional, cell-based. Particulars: MDA-MB-231, 72 h. (In general: Sulforhodamine B stains cellular protein and so reports cell mass.)
Series [23] in a line: Antiproliferative activity against human 95-D cells assessed as reduction in cell growth incubated for 72 hrs by SRB assay. The format is functional, cell-based.
For a further series, the system named is PANC-1. Put plainly: Antiproliferative activity against human PANC-1 cells assessed as reduction in cell growth incubated for 72 hrs by SRB assay. The format is functional, cell-based. Particulars: PANC-1, 72 h.
The next series relates to NCI-H1975. Kind of series: Antiproliferative activity against human NCI-H1975 cells assessed as reduction in cell growth incubated for 72 hrs by SRB assay. The class given is functional, cell-based. The following applies: NCI-H1975, 72 h.
Another series deals with U-87 MG. Put plainly: Antiproliferative activity against human U87 cells assessed as reduction in cell growth incubated for 72 hrs by SRB assay. The format is functional, cell-based, U-87MG ATCC.
The test system of another series is NCI-H1299. Kind of series: Antiproliferative activity against human NCI-H1299 cells assessed as reduction in cell growth incubated for 72 hrs by SRB assay. The class given is functional, cell-based. Particulars: NCI-H1299, 72 h.
Series [24] relates to HepG2. Kind of series: Antiproliferative activity against human HepG2 cells assessed as reduction in cell growth incubated for 72 hrs by SRB assay. The class given is functional, cell-based. Particulars: HepG2, 72 h.
Another series relates to Bel-7402. Kind of series: Antiproliferative activity against human Bel-7402 cells assessed as reduction in cell growth incubated for 72 hrs by SRB assay. The format is functional, cell-based. Particulars: Bel-7402, 72 h.
The test system of a further series is SK-OV-3. Put plainly: Antiproliferative activity against human SK-OV-3 cells assessed as reduction in cell growth incubated for 72 hrs by SRB assay. The format is functional, cell-based. Particulars: SK-OV-3, 72 h.
For series [25], the system named is HCT-116. Put plainly: Antitumor activity against human HCT-116 cells xenografted in BALB/c nude mouse assessed as tumor growth inhibition at 50 mg/kg, po administered once a daily for 13 consecutive days relative to control. The following applies: read-out: TGI. The class given is functional.
Series [26] deals with HCT-116. Kind of series: Antiproliferative activity against human HCT-116 cells assessed as reduction in cell growth incubated for 72 hrs by SRB assay. The class given is functional, cell-based. Particulars: HCT-116, 72 h.
The next series relates to K562. Kind of series: Antiproliferative activity against human K562 cells assessed as reduction in cell growth incubated for 72 hrs by SRB assay. The class given is functional, cell-based. Particulars: K562, 72 h.

Molecules are shown by their SMILES.

Cyclin-dependent kinase 4, sequence (P11802 whole entry): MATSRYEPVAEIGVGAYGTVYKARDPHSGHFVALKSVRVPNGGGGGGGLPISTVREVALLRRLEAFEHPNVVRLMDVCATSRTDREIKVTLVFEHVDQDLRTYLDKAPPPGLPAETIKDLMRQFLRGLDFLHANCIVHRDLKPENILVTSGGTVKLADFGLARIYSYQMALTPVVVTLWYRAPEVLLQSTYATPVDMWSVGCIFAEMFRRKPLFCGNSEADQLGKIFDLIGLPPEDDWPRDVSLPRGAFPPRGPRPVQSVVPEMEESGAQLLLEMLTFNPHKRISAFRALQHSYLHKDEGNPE

As a reminder, the IC50 is the midpoint of a concentration-inhibition curve. For `COc1ccc(C2CC(c3ccc(OC)c(OC)c3)=NN2c2nc(-c3ccccc3)cs2)cc1` (centres undefined), the IC50 was greater than 50 µM in the series with MCF-10A and 7.21 µM in the series with MCF7 [1].
For `CCOC(=O)C1=C(N/C=N/c2cccnc2Cl)Nc2[nH]nc(C)c2C1c1ccc(N(C)C)cc1` (centres undefined), the figures for the IC50 in the series on HeLa [2], in the series with HepG2 [3] and with MCF7 [4] were 4.18 µM, 4.55 µM and 4.24 µM, respectively.
For `O=c1[nH]cc(F)c(=O)[nH]1` [FLUOROURACIL], the inhibition in vivo at 25 mg/kg in the series on HCT-116 [5] amounted to 54.8%.
`COc1ncc(-c2ccc3ncnc(Nc4cnn(CCO)c4)c3c2)cc1NS(=O)(=O)c1ccc(F)cc1F`: the inhibition in vivo at 40 mg/kg in the series with T47D [6] was found to be 84.1%. In the series with T47D [7], the inhibition in vivo at 20 mg/kg is 54.1%.
The bioavailability is dose-corrected exposure relative to a reference, in per cent. Read a high bioavailability as much systemic uptake. For orientation: Tmax means the time at which the peak concentration occurs. What is called Cmax is the highest concentration seen after dosing. For the compound `COc1cc(/C=C2\CCCN3C(=O)C4C=NN(C)C4N=C23)cc(OC)c1OC` (centres undefined), the bioavailability in series [8] is 78.6%. Moreover, in the series with HT-29 [9], the inhibition in vivo at 20 mg/kg was 61.7%. The IC50 in the series on HT-29 [10], with HGC-27, with HCT-116 [12] and in the series on HeLa [13] was 0.03 µM throughout. Besides, in [11], the Tmax was 1.67 h. For the same compound, in series [14], the concentration peaked (Cmax) at 68.8 ng/mL.
For the compound `CCN1CCN(c2ccc(Nc3ncc(F)c(-c4cnc5cnn(C(C)C)c5c4)n3)cc2OC)CC1`, the results for the IC50 in series [15] and in series [16] were 0.011 µM and 0.007 µM, respectively. Also, the inhibition in vivo at 200 mg/kg with MV4-11 worked out at 67%.
What is called half-life is the time in which the quantity being followed falls by half. High values mean slow loss, low ones fast loss. Consider `O=C(Nc1ccc(OC(F)(F)Cl)cc1)c1cnc(N2CC[C@@H](O)C2)c(-c2ccn[nH]2)c1` [ASCIMINIB], for which the inhibition in vivo at 3 mg/kg in the series with KCL-22 came out at 65%. In addition, the Tmax in [17] was determined as 2.5 h. Further, the half-life in series [18] was 5.5 h.
Take `COc1cc(OC)c(F)c(COc2cnc(Nc3cnn(CCO)c3)nc2)c1F` [ASP-5878]: the figures for the bioavailability in [19] and in series [20] were 94.2% and 76.1%, respectively.
For `CCOc1ccc(Oc2ccc(C3=NN(C4=NC(=O)CS4)C(c4cc(O)c(O)c(Br)c4Br)C3)cc2)cc1` (centres undefined), in series [21], the IC50 at 72 h amounted to 28.3 µM. Besides, the IC50 at 48 h in series [22] turned out to be 27.1 µM. Further, the IC50 (in the series on MDA-MB-231; in series [23]; with PANC-1; with NCI-H1975; with U-87 MG; in the series on NCI-H1299) was 2.64 µM in each case. Also, the IC50 with HepG2 [24], with Bel-7402, with SK-OV-3, with HCT-116 [26] and in the series with K562 was 2.64 µM in each case. For the same compound, the inhibition in vivo at 25 mg/kg in the series on HCT-116 [5] is 58.8%. For the same compound, the inhibition in vivo at 50 mg/kg in the series with HCT-116 [25] stood at 67.2%.
